{"source": "patent US6642251B1", "about": "“Geometrically restricted 2-indolinone derivatives as modulators of protein kinase activity” (Sugen, Inc., priority 1998, dated 2003)", "key": {"PDGFR": {"target": "T1, PDGFR (Homo sapiens, UniProt P09619)", "T1 construct": "expressed in transfected cells; host or cells: NIH 3T3", "T1 sequence (P09619 33-1106, species assumed)": "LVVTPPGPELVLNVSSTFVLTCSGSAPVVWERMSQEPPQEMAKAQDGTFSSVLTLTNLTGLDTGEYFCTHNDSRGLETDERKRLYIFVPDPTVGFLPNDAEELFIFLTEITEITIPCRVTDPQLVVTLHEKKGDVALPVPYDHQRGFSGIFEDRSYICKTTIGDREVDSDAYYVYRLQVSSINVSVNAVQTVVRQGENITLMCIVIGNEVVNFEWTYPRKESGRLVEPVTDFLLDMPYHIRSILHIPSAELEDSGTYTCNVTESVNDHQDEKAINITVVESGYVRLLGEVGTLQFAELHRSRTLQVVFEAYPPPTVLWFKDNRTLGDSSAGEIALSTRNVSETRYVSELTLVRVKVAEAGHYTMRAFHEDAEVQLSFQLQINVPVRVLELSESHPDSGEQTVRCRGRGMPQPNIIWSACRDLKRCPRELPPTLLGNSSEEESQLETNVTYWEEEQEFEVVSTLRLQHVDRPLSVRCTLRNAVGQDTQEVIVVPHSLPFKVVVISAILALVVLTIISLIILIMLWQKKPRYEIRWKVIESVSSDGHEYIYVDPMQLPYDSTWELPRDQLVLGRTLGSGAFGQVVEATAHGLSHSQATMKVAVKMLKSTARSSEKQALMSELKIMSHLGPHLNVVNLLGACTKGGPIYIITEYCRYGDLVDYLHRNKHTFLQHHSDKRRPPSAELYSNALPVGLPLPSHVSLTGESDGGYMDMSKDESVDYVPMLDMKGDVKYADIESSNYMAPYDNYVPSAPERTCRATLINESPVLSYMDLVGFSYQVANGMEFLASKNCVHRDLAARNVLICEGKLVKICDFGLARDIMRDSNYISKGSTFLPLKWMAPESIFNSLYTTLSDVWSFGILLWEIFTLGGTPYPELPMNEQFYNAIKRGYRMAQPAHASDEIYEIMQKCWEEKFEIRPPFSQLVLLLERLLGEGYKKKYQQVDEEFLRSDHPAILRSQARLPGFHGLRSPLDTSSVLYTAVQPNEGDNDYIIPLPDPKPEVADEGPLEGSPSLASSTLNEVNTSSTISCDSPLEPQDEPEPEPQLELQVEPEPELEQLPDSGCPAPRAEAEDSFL", "assay": "Biochemical PDGFR assay (bio PDGFR), ELISA", "description": "This assay measures the in vitro kinase activity of PDGFR using ELISA.\n6. PDGFR-β expressing NIH 3T3 cell lysate (Screening Lab, SUGEN, Inc.).\n1. Coat Corning 96 well ELISA plates with 0.5 μg 28D4C10 in 100 μl PBS per well, store overnight at 4° C.\n2. Remove unbound 28D4C10 from wells by inverting plate to remove liquid. Wash 1× with dH2O. Pat the plate on a paper towel to remove excess liquid.\n3. Add 150 μl of Blocking Buffer to each well. Incubate for 30 min. at room temperature with shaking.\n4. Wash plate 3× with deionized water, then once with TBST. Pat plate on a paper towel to remove excess liquid and bubbles.\n5. Dilute lysate in HNTG (10 μg lysate/100 μl HNTG)\n6. Add 100 μl of diluted lysate to each well. Shake at room temperature for 60 min.\n7. Wash plates as described in 4, above.\n8. Add 80 μl working kinase buffer mix to ELISA plate containing captured PDGFR.\n10. Add 10 μl diluted test compound to ELISA plate.\n11. Incubate for 30 minutes while shaking at room temperature.\n12. Add 10 μl ATP directly to all wells except negative control well (final well volume should be approximately 100 μl with 20 μM ATP in each well.) Incubate 30 minutes while shaking.\n13. After 30 minutes, stop reaction by adding 10 μl of 200 mM EDTA (pH 8.0) to each well.\n14. Wash 4× with deionized water, twice with TBST.\n15. Add 100 μl anti-phosphotyrosine (1:3000 dilution in TBST) per well. Incubate 30-45 min. at room temperature, with shaking.\n16. Wash as described in 4, above.\n17. […] Incubate 30 min. at room temperature, with shaking.\n18. Wash as described in 4, above.\n19. Add 100 μl of ABTS/H2O2 solution to each well.\n20. Incubate 10 to 30 minutes with shaking. Remove any bubbles.\n21. If necessary stop reaction with the addition of 100 μl 0.2 M HCl per well."}, "Pyk2": {"target": "Pyk2 (Homo sapiens, UniProt Q14289)", "sequence (Q14289 whole entry, species assumed)": "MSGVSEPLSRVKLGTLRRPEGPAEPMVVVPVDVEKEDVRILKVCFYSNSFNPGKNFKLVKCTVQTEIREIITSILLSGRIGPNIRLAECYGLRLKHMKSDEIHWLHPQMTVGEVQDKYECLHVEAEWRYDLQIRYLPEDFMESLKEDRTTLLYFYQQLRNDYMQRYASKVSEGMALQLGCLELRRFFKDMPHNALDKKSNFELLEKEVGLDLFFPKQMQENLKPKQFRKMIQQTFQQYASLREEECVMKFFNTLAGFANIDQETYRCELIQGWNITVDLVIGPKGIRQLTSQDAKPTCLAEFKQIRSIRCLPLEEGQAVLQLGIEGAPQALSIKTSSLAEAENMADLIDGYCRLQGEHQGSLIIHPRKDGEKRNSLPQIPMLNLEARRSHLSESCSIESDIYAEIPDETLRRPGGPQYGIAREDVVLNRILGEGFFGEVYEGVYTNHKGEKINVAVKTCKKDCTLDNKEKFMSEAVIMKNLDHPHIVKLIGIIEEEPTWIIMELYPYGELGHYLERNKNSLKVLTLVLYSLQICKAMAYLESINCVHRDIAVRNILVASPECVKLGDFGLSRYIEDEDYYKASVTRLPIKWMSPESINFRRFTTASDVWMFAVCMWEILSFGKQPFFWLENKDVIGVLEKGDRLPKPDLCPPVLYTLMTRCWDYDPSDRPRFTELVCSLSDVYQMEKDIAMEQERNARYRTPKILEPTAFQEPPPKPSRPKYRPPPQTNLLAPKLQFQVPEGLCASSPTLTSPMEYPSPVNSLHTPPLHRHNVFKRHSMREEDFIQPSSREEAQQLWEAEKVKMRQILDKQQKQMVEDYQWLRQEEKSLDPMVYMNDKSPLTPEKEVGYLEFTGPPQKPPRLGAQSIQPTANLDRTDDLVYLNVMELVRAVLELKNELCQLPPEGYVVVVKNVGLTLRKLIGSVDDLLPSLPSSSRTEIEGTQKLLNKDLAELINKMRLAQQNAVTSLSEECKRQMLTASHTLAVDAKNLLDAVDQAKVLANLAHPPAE", "assay": "Pyk2 assay; for Pyk2, outcome of primary assay: key: DNH = did not hit in primary assay", "assay_type": "biochemical"}, "human flk-1": {"target": "T2, human flk-1 (Homo sapiens, UniProt P35968)", "T2 construct": "expressed in transfected cells; host or cells: NIH fibroblast line (Flk-1/NIH cells, clone 3)", "T2 sequence (P35968 20-1356)": "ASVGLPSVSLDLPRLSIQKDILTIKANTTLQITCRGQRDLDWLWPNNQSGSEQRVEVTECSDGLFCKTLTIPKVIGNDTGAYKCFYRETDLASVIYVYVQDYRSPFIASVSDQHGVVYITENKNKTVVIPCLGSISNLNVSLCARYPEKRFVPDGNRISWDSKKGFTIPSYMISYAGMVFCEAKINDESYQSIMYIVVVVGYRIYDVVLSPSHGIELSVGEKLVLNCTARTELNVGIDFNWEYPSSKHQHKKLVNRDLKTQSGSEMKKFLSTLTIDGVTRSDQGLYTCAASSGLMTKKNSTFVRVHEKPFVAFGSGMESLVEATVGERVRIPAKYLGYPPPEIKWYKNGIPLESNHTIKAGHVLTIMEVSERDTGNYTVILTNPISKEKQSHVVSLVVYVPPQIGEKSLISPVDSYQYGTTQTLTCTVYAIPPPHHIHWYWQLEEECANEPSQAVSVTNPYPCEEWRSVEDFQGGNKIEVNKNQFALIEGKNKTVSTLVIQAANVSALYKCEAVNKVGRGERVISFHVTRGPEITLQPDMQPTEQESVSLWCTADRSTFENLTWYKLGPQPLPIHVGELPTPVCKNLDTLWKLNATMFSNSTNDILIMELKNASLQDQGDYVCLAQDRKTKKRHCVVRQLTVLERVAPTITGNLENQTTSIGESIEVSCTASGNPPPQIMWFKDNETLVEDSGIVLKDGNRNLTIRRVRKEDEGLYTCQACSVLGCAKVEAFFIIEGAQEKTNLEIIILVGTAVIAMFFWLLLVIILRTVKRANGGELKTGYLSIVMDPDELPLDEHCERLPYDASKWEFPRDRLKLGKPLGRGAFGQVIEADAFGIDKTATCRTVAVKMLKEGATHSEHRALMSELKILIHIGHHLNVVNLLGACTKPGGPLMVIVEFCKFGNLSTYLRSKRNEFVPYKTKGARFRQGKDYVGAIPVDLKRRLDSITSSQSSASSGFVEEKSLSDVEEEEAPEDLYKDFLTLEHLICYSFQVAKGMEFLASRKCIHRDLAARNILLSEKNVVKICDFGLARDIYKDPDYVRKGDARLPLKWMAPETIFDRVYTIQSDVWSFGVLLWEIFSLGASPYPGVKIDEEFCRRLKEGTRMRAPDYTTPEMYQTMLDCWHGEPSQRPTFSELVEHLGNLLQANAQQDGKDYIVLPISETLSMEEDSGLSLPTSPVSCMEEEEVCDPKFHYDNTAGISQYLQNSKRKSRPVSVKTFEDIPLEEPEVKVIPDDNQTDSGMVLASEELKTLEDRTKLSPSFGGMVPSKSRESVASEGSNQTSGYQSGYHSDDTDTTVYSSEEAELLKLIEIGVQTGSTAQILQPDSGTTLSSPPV", "assay": "Biochemical FLK-1 assay (bio Flk), autophosphorylation ELISA", "description": "This assay evaluates flk-1 autophosphorylation activity in vitro using ELISA.\n1. Seed cell into growth medium and grow for 2-3 days to 90-100% confluency at 37° C. and 5% C)2.\n2. Remove the medium and wash the cells twice with PBS. Lyse with HNTG lysis buffer. Collect all lysates and vortex mix them for 20-30 seconds.\n3. Remove insoluble material by centrifugation (5-10 min at about 10,000×g).\n4. Determine the protein concentration using BCA kit.\n5. Partition lysate into 1 mg aliquots, store at −80° C.\n1. Coat Corning 96-well ELISA plates with 2 μg/well purified L4 (or E 38) in 100 μl of PBS. Store overnight at 4° C.\n2. Remove unbound proteins from wells by inverting the plate to remove the liquid. Wash one time with dH2O pat plate on paper towel to remove excess liquid.\n3. Block plates with 150 μl blocking buffer per well. Incubate for 45-60 minutes with shaking at 4° C.\n4. Remove the blocking buffer and wash the ELISA plate three times with dH2O and one time with TBST. Pat plate on paper towel to remove excess liquid.\n5. Dilute lysate in PBS to give final concentration of 50 μg/100 μl. Add 100 μl of diluted lysate to each well. Incubate with shaking at 4° C. overnight.\n6. Remove unbound proteins from wells by inverting the plate. Wash as in step 4.\n7. Add 80 μl of kinase buffer to wells (90 μl to negative control wells).\n8. Dilute test compounds (normally 10-fold) into wells of a polypropylene plate containing 20% DMSO in TBS.\n9. Add 10 μl of the diluted compounds to the ELISA wells containing immobilized flk-1 and shake. Control wells receive no compounds.\n10. From stock 1 mM ATP, prepare 0.3 mM ATP solution in dH20 (alternatively, kinase buffer may be used).\n11. Add 10 μl of 0.3 mM ATP to all wells except the negative controls. Incubate for 60 min. at room temperature with shaking.\n12. After 1 hr stop the kinase reaction by adding 11 μl 200 mM EDTA. Shake for 1-2 min.\n13. Wash the ELISA plate 4 times with dH2O and twice with TBST.\n14. Add 100 μl of 1:5000 biotinylated 4G10:TBST to all wells. Incubate 45 min with shaking at room temperature.\n15. While the above is incubating, add 50 μl of solutions A & B from the ABC kit to 10 ml of TBST. These solutions must be combined approximately 30 min prior to use.\n16. Wash plates as in step 4.\n17. Add 100 μl of the preformed A & B complex to all wells. Incubate 30 min with shaking at room temperature.\n18. Wash plates as in step 4.\n19. Add 100 μl turbo-TMB. Shake at room temperature for 10-15 min.\n20. When the color in the positive control wells reaches an absorbance of about 0.35-0.4, stop the reaction with 100 μl of turbo-TMB stop solution."}, "[1]": {"details": "50% inhibition of target PTK activity, read-out: bio PDGFR IC50"}, "[2]": {"details": "50% inhibition of target PTK activity, read-out: Pyk2 IC50"}, "[3]": {"details": "50% inhibition of target PTK activity, read-out: bio Flk IC50"}, "[4]": {"details": "bio PDGFR IC50, 50% inhibition of target PTK activity"}}, "note": "Where “and” joins values, the source holds several entries; their conditions need not be identical. Equal entries are not always repeated. Where two headings read alike, the source gives them in different places.", "data": [{"smiles": "CC1C/C(=C2/C(=O)Nc3ccccc32)c2ccccc21", "note": "(stereo not shown) [Compound 1, 3-(3-methylindan-1-ylidene)-1,3-dihydroindol-2-one]", "values": [{"measurement": "IC50", "setting": "PDGFR; [1]", "value": "> 100", "unit": "µM"}, {"measurement": "IC50", "setting": "Pyk2; [2]", "value": "> 100", "unit": "µM"}, {"measurement": "IC50", "setting": "human flk-1; [3]", "value": 18.4, "unit": "µM"}]}, {"smiles": "Cc1cccc2c1CC/C2=C1/C(=O)Nc2ccccc21", "note": "[Compound 2, 3-(4-Methylindan-1-ylidene)-1,3-dihydroindol-2-one]", "values": [{"measurement": "IC50", "setting": "PDGFR; [1]", "value": "> 100", "unit": "µM"}, {"measurement": "Pyk2, outcome of primary assay", "setting": "Pyk2", "value": "DNH"}, {"measurement": "IC50", "setting": "human flk-1; [3]", "value": 8.2, "unit": "µM"}]}, {"smiles": "COc1ccc2c(c1)CC/C2=C1/C(=O)Nc2ccccc21", "note": "[Compound 3, 3-(5-Methoxyindan-1-ylidene)-1,3-dihydroindol-2-one]", "values": [{"measurement": "IC50", "setting": "PDGFR; [4]", "value": 86.9, "unit": "µM"}, {"measurement": "Pyk2 % Inh", "setting": "Pyk2; concentration not given", "value": 56, "unit": "%"}, {"measurement": "Pyk2, outcome of primary assay", "setting": "Pyk2", "value": "DNH"}, {"measurement": "IC50", "setting": "human flk-1", "value": 2.6, "unit": "µM"}]}, {"smiles": "CN(C)c1ccc2c(c1)CC/C2=C1/C(=O)Nc2ccccc21", "note": "[Compound 5, 3-(5-Dimethylaminoindan-1-ylidene)-1,3-dihydroindol-2-one]", "values": [{"measurement": "IC50", "setting": "PDGFR; [1]", "value": 50.8, "unit": "µM"}, {"measurement": "IC50", "setting": "Pyk2; [2]", "value": 79.3, "unit": "µM"}, {"measurement": "IC50", "setting": "human flk-1; [3]", "value": 3.1, "unit": "µM"}]}, {"smiles": "O=C1Nc2ccccc2/C1=C1\\CCc2cc(Cl)ccc21", "note": "[Compound 7, 3-(5-Chloroindan-1-ylidene)-1,3-dihydroindol-2-one]", "values": [{"measurement": "IC50", "setting": "PDGFR; [1]", "value": "> 100", "unit": "µM"}, {"measurement": "Pyk2, outcome of primary assay", "setting": "Pyk2", "value": "DNH"}, {"measurement": "IC50", "setting": "human flk-1; [3]", "value": 7.1, "unit": "µM"}]}, {"smiles": "O=C1Nc2ccccc2/C1=C1\\CCc2cc(N3CCCCC3)ccc21", "note": "[Compound 8, 3-(5-Piperidin-1-yl-indan-1-ylidene)-1,3-dihydroindol-2-one]", "values": [{"measurement": "IC50", "setting": "PDGFR; [1]", "value": "> 100", "unit": "µM"}, {"measurement": "Pyk2, outcome of primary assay", "setting": "Pyk2", "value": "DNH"}, {"measurement": "IC50", "setting": "human flk-1; [3]", "value": 4.3, "unit": "µM"}]}, {"smiles": "O=C1Nc2ccccc2/C1=C1\\CCc2cc(Br)ccc21", "note": "[Compound 9, 3-(5-Bromoindan-1-ylidene)-1,3-dihydroindol-2-one]", "values": [{"measurement": "IC50", "setting": "PDGFR; [1]", "value": "> 100", "unit": "µM"}, {"measurement": "IC50", "setting": "human flk-1; [3]", "value": 2.9, "unit": "µM"}]}, {"smiles": "O=C1Nc2ccccc2/C1=C1\\CCc2ccccc21", "note": "[Compound 10, 3-Indan-1-ylidene-1,3-dihydroindol-2-one]", "values": [{"measurement": "IC50", "setting": "PDGFR; [1]", "value": 63.7, "unit": "µM"}, {"measurement": "IC50", "setting": "human flk-1; [3]", "value": 1.4, "unit": "µM"}]}, {"smiles": "COc1ccc2c(c1)C(CC(=O)O)C/C2=C1/C(=O)Nc2ccccc21", "note": "(stereo not shown) [Compound 11, [6-Methoxy-3-(2-oxo-1,2-dihydroindol-3-ylidene)-indan-1-yl]acetic Acid]", "values": [{"measurement": "IC50", "setting": "PDGFR; [1]", "value": 1.5, "unit": "µM"}, {"measurement": "IC50", "setting": "Pyk2; [2]", "value": 9.3, "unit": "µM"}, {"measurement": "IC50", "setting": "human flk-1; [3]", "value": 0.02, "unit": "µM"}]}, {"smiles": "COc1cc2c(cc1OC)/C(=C1\\C(=O)Nc3ccccc31)CC2", "note": "[Compound 12, 3-(5,6-Dimethoxyindan-1-ylidene)-1,3-dihydroindol-2-one]", "values": [{"measurement": "IC50", "setting": "PDGFR; [1]", "value": "> 25", "unit": "µM"}, {"measurement": "Pyk2, outcome of primary assay", "setting": "Pyk2", "value": "DNH"}, {"measurement": "IC50", "setting": "human flk-1; [3]", "value": "> 25", "unit": "µM"}]}, {"smiles": "COc1ccc2c(c1)C(CC(=O)[O-])CC2=C1C(=O)Nc2ccccc21.[Na+]", "note": "(stereo not shown) [Compound 13, [6-Methoxy-3-(2-oxo-1,2-dihydroindol-3-ylidene)-indan-1-yl]acetic Acid Sodium Salt]", "values": [{"measurement": "IC50", "setting": "PDGFR; [4]", "value": "1 µM and 3.2 µM"}, {"measurement": "IC50", "setting": "Pyk2", "value": 4.5, "unit": "µM"}]}]}
